This note sets out measurements from the supplement of paper PMC10307832.

What all share (experiment): relative viability (nuclei count vs DMSO), 5 days (fraction); higher = more cells survive
Compound in the test “ALW-II-49-7 + Pemetrexed”: Cc1ccc(C(=O)Nc2cccc(C(F)(F)F)c2)cc1Nc1cncc(C(N)=O)c1 [ALW-II-49-7] + Nc1nc2[nH]cc(CCc3ccc(C(=O)N[C@@H](CCC(=O)O)C(=O)O)cc3)c2c(=O)[nH]1 [Pemetrexed] (partner 0.2 µM)
An outline of the steps: (§1)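 Cells from lung cancer lines were seeded into 1536-well plates and, one day later, dosed by pin tool. Treatments were either a single drug or a fixed dose of an anchor drug with five library-drug doses (not always all listed) in √10 steps. After 5 days, nuclei were stained in a one-step fixation (final 0.05% Triton X-100, 1% formaldehyde, 1 ug/ml Hoechst) and counted on 4× images, and relative viability is the treated-to-vehicle nuclei ratio, as the median of duplicate plates.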

Compound in the test “XMD13-2 + Bortezomib”: C1CC1C(=O)NC2=NNC3=C2C=CC(=C3)C4=CC(=CC=C4)C(=O)NC5CC5 [XMD13-2] + CC(C)C[C@H](NC(=O)[C@H](Cc1ccccc1)NC(=O)c1cnccn1)B(O)O [Bortezomib] (partner 0.002 µM)
The gist of the method: as §1

Compound in the test “Dasatinib + Bortezomib”: Cc1nc(Nc2ncc(C(=O)Nc3c(C)cccc3Cl)s2)cc(N2CCN(CCO)CC2)n1 [Dasatinib] + CC(C)C[C@H](NC(=O)[C@H](Cc1ccccc1)NC(=O)c1cnccn1)B(O)O [Bortezomib] (partner 0.002 µM)
The gist of the method:
as §1

Compound in the test “ALW-II-49-7 + Lapatinib”: Cc1ccc(C(=O)Nc2cccc(C(F)(F)F)c2)cc1Nc1cncc(C(N)=O)c1 [ALW-II-49-7] + CS(=O)(=O)CCNCc1ccc(-c2ccc3ncnc(Nc4ccc(OCc5cccc(F)c5)c(Cl)c4)c3c2)o1 [Lapatinib] (partner 2 µM)
The gist of the method:
as §1

Regarding ChaGo-K-1, the relative viability in the test with ALW-II-49-7 + Pemetrexed (first compound 0.08 µM) was found to be 0.266; in the test with ALW-II-49-7 + Pemetrexed (first compound 0.253 µM), 0.274; with ALW-II-49-7 + Pemetrexed (first compound 0.8 µM) it was 0.263; with ALW-II-49-7 + Pemetrexed (first compound 2.53 µM), 0.268; in the test with ALW-II-49-7 + Pemetrexed (first compound 8 µM), 0.262; with XMD13-2 + Bortezomib (first compound 0.05 µM) it was 1.09. The relative viability in the test with XMD13-2 + Bortezomib (first compound 0.1581 µM) worked out at 1.02; with XMD13-2 + Bortezomib (first compound 0.5 µM), 1.02; with XMD13-2 + Bortezomib (first compound 5 µM), 0.911; with Dasatinib + Bortezomib (first compound 0.005 µM), 0.847; in the test with Dasatinib + Bortezomib (first compound 0.01581 µM), 1.03; with Dasatinib + Bortezomib (first compound 0.05 µM), 0.99. Also, the relative viability stood at 0.891 in the test with Dasatinib + Bortezomib (first compound 0.1581 µM) and 0.864 with Dasatinib + Bortezomib (first compound 0.5 µM).
Consider EBC-1, for which the relative viability with XMD13-2 + Bortezomib (first compound 0.05 µM) came out at 0.61; with XMD13-2 + Bortezomib (first compound 0.1581 µM), 0.523; in the test with XMD13-2 + Bortezomib (first compound 0.5 µM) it was 0.552; in the test with XMD13-2 + Bortezomib (first compound 1.581 µM), 0.531; in the test with XMD13-2 + Bortezomib (first compound 5 µM), 0.299; with Dasatinib + Bortezomib (first compound 0.005 µM) it was 0.583. The relative viability came to 0.459 with Dasatinib + Bortezomib (first compound 0.01581 µM); 0.486 in the test with Dasatinib + Bortezomib (first compound 0.05 µM); 0.49 in the test with Dasatinib + Bortezomib (first compound 0.1581 µM); 0.436 in the test with Dasatinib + Bortezomib (first compound 0.5 µM); 0.197 in the test with ALW-II-49-7 + Lapatinib (first compound 0.08 µM); 0.186 with ALW-II-49-7 + Lapatinib (first compound 0.253 µM). Also, the results for the relative viability in the test with ALW-II-49-7 + Lapatinib (first compound 0.8 µM), with ALW-II-49-7 + Lapatinib (first compound 2.53 µM) and with ALW-II-49-7 + Lapatinib (first compound 8 µM) were 0.15, 0.231 and 0.162, respectively.
As for EKVX, the relative viability with ALW-II-49-7 + Pemetrexed (first compound 0.08 µM) is 0.396; with ALW-II-49-7 + Pemetrexed (first compound 0.253 µM), 0.323; with ALW-II-49-7 + Pemetrexed (first compound 0.8 µM) it was 0.405; with ALW-II-49-7 + Pemetrexed (first compound 2.53 µM) it was 0.336; in the test with ALW-II-49-7 + Pemetrexed (first compound 8 µM) it was 0.414; with XMD13-2 + Bortezomib (first compound 0.05 µM), 1.23. The relative viability is 1.03 with XMD13-2 + Bortezomib (first compound 0.1581 µM); 1.06 with XMD13-2 + Bortezomib (first compound 0.5 µM); 1.1 in the test with XMD13-2 + Bortezomib (first compound 1.581 µM); 1.09 with XMD13-2 + Bortezomib (first compound 5 µM); 0.929 with Dasatinib + Bortezomib (first compound 0.005 µM); 0.807 with Dasatinib + Bortezomib (first compound 0.01581 µM). Moreover, the relative viability with Dasatinib + Bortezomib (first compound 0.05 µM) was 0.87; in the test with Dasatinib + Bortezomib (first compound 0.1581 µM) it was 0.501; with Dasatinib + Bortezomib (first compound 0.5 µM), 0.146; in the test with ALW-II-49-7 + Lapatinib (first compound 0.08 µM), 0.194; in the test with ALW-II-49-7 + Lapatinib (first compound 0.253 µM), 0.188; with ALW-II-49-7 + Lapatinib (first compound 0.8 µM), 0.173. For the same cell line, the relative viability was 0.127 with ALW-II-49-7 + Lapatinib (first compound 2.53 µM) and 0.188 with ALW-II-49-7 + Lapatinib (first compound 8 µM).
As to EMC-BAC-2, the relative viability stood at 0.448 with ALW-II-49-7 + Pemetrexed (first compound 0.08 µM); 0.455 with ALW-II-49-7 + Pemetrexed (first compound 0.253 µM); 0.409 with ALW-II-49-7 + Pemetrexed (first compound 0.8 µM); 0.456 with ALW-II-49-7 + Pemetrexed (first compound 2.53 µM); 0.403 with ALW-II-49-7 + Pemetrexed (first compound 8 µM); 1.17 in the test with XMD13-2 + Bortezomib (first compound 0.05 µM). Moreover, the relative viability was 1.04 with XMD13-2 + Bortezomib (first compound 0.1581 µM); 1.12 with XMD13-2 + Bortezomib (first compound 0.5 µM); 1.07 with XMD13-2 + Bortezomib (first compound 1.581 µM); 0.923 in the test with XMD13-2 + Bortezomib (first compound 5 µM); 1.06 with Dasatinib + Bortezomib (first compound 0.005 µM); 0.876 with Dasatinib + Bortezomib (first compound 0.01581 µM). Besides, the relative viability turned out to be 0.734 with Dasatinib + Bortezomib (first compound 0.05 µM); 0.634 with Dasatinib + Bortezomib (first compound 0.1581 µM); 0.367 in the test with Dasatinib + Bortezomib (first compound 0.5 µM); 0.829 with ALW-II-49-7 + Lapatinib (first compound 0.08 µM); 0.812 with ALW-II-49-7 + Lapatinib (first compound 0.253 µM); 0.888 with ALW-II-49-7 + Lapatinib (first compound 0.8 µM). The relative viability with ALW-II-49-7 + Lapatinib (first compound 2.53 µM) came out at 0.937; with ALW-II-49-7 + Lapatinib (first compound 8 µM), 0.814.
EPLC-272H: the relative viability with ALW-II-49-7 + Pemetrexed (first compound 0.08 µM) is 0.315; in the test with ALW-II-49-7 + Pemetrexed (first compound 0.253 µM), 0.382; with ALW-II-49-7 + Pemetrexed (first compound 0.8 µM) it was 0.289; with ALW-II-49-7 + Pemetrexed (first compound 2.53 µM), 0.34; with ALW-II-49-7 + Pemetrexed (first compound 8 µM), 0.206; in the test with XMD13-2 + Bortezomib (first compound 0.05 µM) it was 0.747. The relative viability was 0.886 with XMD13-2 + Bortezomib (first compound 0.1581 µM); 0.855 in the test with XMD13-2 + Bortezomib (first compound 0.5 µM); 0.856 with XMD13-2 + Bortezomib (first compound 1.581 µM); 0.871 in the test with XMD13-2 + Bortezomib (first compound 5 µM); 0.921 in the test with Dasatinib + Bortezomib (first compound 0.005 µM); 0.89 with Dasatinib + Bortezomib (first compound 0.01581 µM). Moreover, the relative viability was 0.808 in the test with Dasatinib + Bortezomib (first compound 0.05 µM); 0.864 with Dasatinib + Bortezomib (first compound 0.1581 µM); 0.429 in the test with Dasatinib + Bortezomib (first compound 0.5 µM); 0.666 with ALW-II-49-7 + Lapatinib (first compound 0.08 µM); 0.916 in the test with ALW-II-49-7 + Lapatinib (first compound 0.253 µM); 1.07 with ALW-II-49-7 + Lapatinib (first compound 0.8 µM). Also, the relative viability with ALW-II-49-7 + Lapatinib (first compound 2.53 µM) was determined as 1.08; with ALW-II-49-7 + Lapatinib (first compound 8 µM), 0.782.
Regarding H3255, the relative viability with ALW-II-49-7 + Pemetrexed (first compound 0.08 µM) turned out to be 0.623; with ALW-II-49-7 + Pemetrexed (first compound 0.253 µM), 0.579; with ALW-II-49-7 + Pemetrexed (first compound 0.8 µM), 0.576; with ALW-II-49-7 + Pemetrexed (first compound 2.53 µM), 0.566; in the test with ALW-II-49-7 + Pemetrexed (first compound 8 µM) it was 0.489; in the test with XMD13-2 + Bortezomib (first compound 0.05 µM) it was 1. Besides, the relative viability with XMD13-2 + Bortezomib (first compound 0.1581 µM) was 0.75; in the test with XMD13-2 + Bortezomib (first compound 0.5 µM), 0.817; with XMD13-2 + Bortezomib (first compound 1.581 µM), 0.575; with XMD13-2 + Bortezomib (first compound 5 µM), 0.764; in the test with Dasatinib + Bortezomib (first compound 0.005 µM), 0.795; with Dasatinib + Bortezomib (first compound 0.01581 µM) it was 0.749. Moreover, the relative viability with Dasatinib + Bortezomib (first compound 0.05 µM) stood at 0.623; in the test with Dasatinib + Bortezomib (first compound 0.1581 µM), 0.504; with Dasatinib + Bortezomib (first compound 0.5 µM) it was 0.299; with ALW-II-49-7 + Lapatinib (first compound 0.08 µM), 0.27; with ALW-II-49-7 + Lapatinib (first compound 0.253 µM), 0.363; in the test with ALW-II-49-7 + Lapatinib (first compound 0.8 µM), 0.266. Also, the relative viability in the test with ALW-II-49-7 + Lapatinib (first compound 2.53 µM) worked out at 0.225; in the test with ALW-II-49-7 + Lapatinib (first compound 8 µM), 0.212.
For HARA, the relative viability with ALW-II-49-7 + Pemetrexed (first compound 0.08 µM) was 0.235; with ALW-II-49-7 + Pemetrexed (first compound 0.253 µM), 0.288; in the test with ALW-II-49-7 + Pemetrexed (first compound 0.8 µM), 0.247; with ALW-II-49-7 + Pemetrexed (first compound 2.53 µM), 0.277; with ALW-II-49-7 + Pemetrexed (first compound 8 µM) it was 0.218; with XMD13-2 + Bortezomib (first compound 0.05 µM), 1.31. Further, the relative viability amounted to 1.11 with XMD13-2 + Bortezomib (first compound 0.1581 µM); 0.671 in the test with XMD13-2 + Bortezomib (first compound 0.5 µM); 1.17 in the test with XMD13-2 + Bortezomib (first compound 1.581 µM); 1.17 in the test with XMD13-2 + Bortezomib (first compound 5 µM); 1.19 in the test with Dasatinib + Bortezomib (first compound 0.005 µM); 0.881 with Dasatinib + Bortezomib (first compound 0.01581 µM). Moreover, the relative viability with Dasatinib + Bortezomib (first compound 0.05 µM) amounted to 0.897; with Dasatinib + Bortezomib (first compound 0.1581 µM), 0.501; in the test with Dasatinib + Bortezomib (first compound 0.5 µM) it was 0.184; with ALW-II-49-7 + Lapatinib (first compound 0.08 µM), 0.675; in the test with ALW-II-49-7 + Lapatinib (first compound 0.253 µM), 0.689; with ALW-II-49-7 + Lapatinib (first compound 0.8 µM) it was 0.87. Besides, the relative viability worked out at 0.964 with ALW-II-49-7 + Lapatinib (first compound 2.53 µM) and 0.866 in the test with ALW-II-49-7 + Lapatinib (first compound 8 µM).
Regarding HCC-15, the relative viability in the test with ALW-II-49-7 + Pemetrexed (first compound 0.08 µM) was 0.214; with ALW-II-49-7 + Pemetrexed (first compound 0.253 µM), 0.227; with ALW-II-49-7 + Pemetrexed (first compound 0.8 µM) it was 0.228; with ALW-II-49-7 + Pemetrexed (first compound 2.53 µM), 0.227; with ALW-II-49-7 + Pemetrexed (first compound 8 µM), 0.241; in the test with XMD13-2 + Bortezomib (first compound 0.05 µM), 1.12. Further, the relative viability with XMD13-2 + Bortezomib (first compound 0.1581 µM) was 0.994; with XMD13-2 + Bortezomib (first compound 0.5 µM), 1.11; with XMD13-2 + Bortezomib (first compound 1.581 µM) it was 0.981; with XMD13-2 + Bortezomib (first compound 5 µM) it was 1.05; in the test with Dasatinib + Bortezomib (first compound 0.005 µM), 1.01; with Dasatinib + Bortezomib (first compound 0.01581 µM), 1.01. Further, the relative viability with Dasatinib + Bortezomib (first compound 0.05 µM) came out at 1.11; with Dasatinib + Bortezomib (first compound 0.1581 µM), 0.965; with Dasatinib + Bortezomib (first compound 0.5 µM) it was 0.743; with ALW-II-49-7 + Lapatinib (first compound 0.08 µM), 0.811; with ALW-II-49-7 + Lapatinib (first compound 0.253 µM), 0.818; in the test with ALW-II-49-7 + Lapatinib (first compound 0.8 µM) it was 0.793. In addition, the relative viability with ALW-II-49-7 + Lapatinib (first compound 2.53 µM) came to 0.815; in the test with ALW-II-49-7 + Lapatinib (first compound 8 µM), 0.764.
